# Data: US12421240B2, “Hydropyrazino[1,2-d][1,4]diazepine compounds for the treatment of autoimmune disease” (Hoffmann-La Roche Inc., priority 2019, dated 2025)
# Molecular target: T1, human TLR9 (Homo sapiens, UniProt Q9NR96)
# T1 sequence (Q9NR96 26-1032): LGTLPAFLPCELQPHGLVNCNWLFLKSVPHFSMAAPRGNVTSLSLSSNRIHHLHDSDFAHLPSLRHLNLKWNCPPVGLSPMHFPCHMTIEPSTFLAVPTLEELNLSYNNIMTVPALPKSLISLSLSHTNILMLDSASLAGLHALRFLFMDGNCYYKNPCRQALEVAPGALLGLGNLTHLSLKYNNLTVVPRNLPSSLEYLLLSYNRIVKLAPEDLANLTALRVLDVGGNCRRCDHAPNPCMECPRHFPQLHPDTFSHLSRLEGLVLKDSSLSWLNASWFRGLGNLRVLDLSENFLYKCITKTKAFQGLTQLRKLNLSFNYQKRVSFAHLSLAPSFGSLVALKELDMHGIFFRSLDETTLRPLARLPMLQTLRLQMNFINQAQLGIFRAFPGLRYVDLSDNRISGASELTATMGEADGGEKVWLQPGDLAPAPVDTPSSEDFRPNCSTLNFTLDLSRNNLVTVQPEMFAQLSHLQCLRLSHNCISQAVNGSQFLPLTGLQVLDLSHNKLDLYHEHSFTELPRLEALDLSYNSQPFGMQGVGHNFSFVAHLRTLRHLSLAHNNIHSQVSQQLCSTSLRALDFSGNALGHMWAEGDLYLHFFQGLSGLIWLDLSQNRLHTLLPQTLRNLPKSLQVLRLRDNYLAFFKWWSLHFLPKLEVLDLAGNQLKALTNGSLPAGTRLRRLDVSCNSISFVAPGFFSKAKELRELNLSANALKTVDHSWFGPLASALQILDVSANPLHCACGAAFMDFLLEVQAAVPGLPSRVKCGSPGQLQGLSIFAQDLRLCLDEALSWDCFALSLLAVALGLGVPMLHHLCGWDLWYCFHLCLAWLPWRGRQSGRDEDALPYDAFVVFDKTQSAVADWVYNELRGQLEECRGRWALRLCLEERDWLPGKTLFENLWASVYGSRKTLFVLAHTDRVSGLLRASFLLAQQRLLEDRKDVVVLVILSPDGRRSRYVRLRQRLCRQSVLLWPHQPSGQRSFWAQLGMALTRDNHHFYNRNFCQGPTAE
# Assay: HEK293-Blue-hTLR-9 cells assay (SEAP reporter, ODN2006 stimulation)
# Assay type: cell-based
# Settings: HEK293-Blue-hTLR9 cells, ODN2006 ligand, 20 hrs; read-out: HEK/hTLR9 IC50
# Method: The following tests were carried out in order to determine the activity of the compounds of formula (I), (Ia) or (Ib) in HEK293-Blue-hTLR-7/8/9 cells assay.
# HEK293-Blue-hTLR-9 Cells Assay:
# A stable HEK293-Blue-hTLR-9 cell line was purchased from InvivoGen (Cat. #: hkb-htlr9, San Diego, California, USA). These cells were originally designed for studying the stimulation of human TLR9 by monitoring the activation of NF-κB. A SEAP (secreted embryonic alkaline phosphatase) reporter gene was placed under the control of the IFN-β minimal promoter fused to five NF-κB and AP-1-binding sites. The SEAP was induced by activating NF-κB and AP-1 via stimulating HEK-Blue hTLR9 cells with TLR9 ligands. Therefore the reporter expression was declined by TLR9 antagonist under the stimulation of a ligand, such as ODN2006 (Cat. #: tlrl-2006-1, Invivogen, San Diego, California, USA), for incubation of 20 hrs. The cell culture supernatant SEAP reporter activity was determined using QUANTI-Blue™ kit (Cat. #: rep-qb1, Invivogen, San Diego, California, USA) at a wavelength of 640 nm, a detection medium that turns purple or blue in the presence of alkaline phosphatase.
# HEK293-Blue-hTLR9 cells were incubated at a density of 250,000˜450,000 cells/mL in a volume of 170 μL in a 96-well plate in Dulbecco's Modified Eagle's medium (DMEM) containing 4.5 g/L glucose, 50 U/mL penicillin, […], 2 mM L-glutamine, 10% (v/v) heat-inactivated fetal bovine serum with addition of 20 μL test compound in a serial dilution in the presence of final DMSO at 1% and 10 μL of 20 uM ODN2006 in above DMEM, perform incubation under 37° C. in a CO2 incubator for 20 hrs. Then 20 μL of the supernatant from each well was incubated with 180 μL Quanti-blue substrate solution at 37° C. for 2 h and the absorbance was read at 620-655 nm using a spectrophotometer. The signaling pathway that TLR9 activation leads to downstream NF-κB activation has been widely accepted, and therefore similar reporter assay was modified for evaluating TLR9 antagonist.
row,Compound,IC50 [nM]
1,"C[C@@H]1CN(c2ccc(C#N)c3ncccc23)C[C@@H]2CCN(c3ccc(N4CCNCC4)nc3)CCN21 [Example 1, 5-[(4R,10aS)-4-methyl-8-(6-piperazin-1-yl-3-pyridyl)-1,3,4,6,7,9,10,10a-octahydropyrazino [1,2-d][1,4]diazepin-2-yl]quinoline-8-carbonitrile]",207
2,"C[C@@H]1CN(c2ccc(C#N)c3ncccc23)C[C@@H]2CCN(c3cnc(N4CCNCC4)nc3)CCN21 [Example 2, 5-[(4R,10aS)-4-methyl-8-(2-piperazin-1-ylpyrimidin-5-yl)-1,3,4,6,7,9,10,10a-octahydropyrazino[1,2-d][1,4]diazepin-2-yl]quinoline-8-carbonitrile]",59.3
3,"C[C@@H]1CN(c2ccc(C#N)c3ncccc23)C[C@@H]2CCN(c3ccc([C@H]4CNCCO4)cc3)CCN21 [Example 3, 5-[(4R,10aS)-4-methyl-8-[4-[(2S)-morpholin-2-yl]phenyl]-1,3,4,6,7,9,10,10a-octahydropyrazino[1,2-d][1,4]diazepin-2-yl]quinoline-8-carbonitrile]",52
4,"C[C@@H]1CN(c2ccc(C#N)c3ncccc23)C[C@@H]2CCN(c3cncc4c3CCNC4)CCN21 [Example 4, 5-[(4R,10aS)-4-methyl-8-(5,6,7,8-tetrahydro-2,7-naphthyridin-4-yl)-1,3,4,6,7,9,10,10a-octahydropyrazino[1,2-d][1,4]diazepin-2-yl]quinoline-8-carbonitrile]",< 31.8
5,"C[C@@H]1CN(c2ccc(C#N)c3ncccc23)C[C@@H]2CCN(c3ccc4c(n3)CNCC4)CCN21 [Example 5, 5-[(4R,10aS)-4-methyl-8-(5,6,7,8-tetrahydro-1,7-naphthyridin-2-yl)-1,3,4,6,7,9,10,10a-octahydropyrazino[1,2-d][1,4]diazepin-2-yl]quinoline-8-carbonitrile]",72.1
6,"C[C@@H]1CN(c2ccc(C#N)c3ncccc23)C[C@@H]2CCN(c3ccc4c(n3)CCNC4)CCN21 [Example 6, 5-[(4R,10aS)-4-methyl-8-(5,6,7,8-tetrahydro-1,6-naphthyridin-2-yl)-1,3,4,6,7,9,10,10a-octahydropyrazino[1,2-d][1,4]diazepin-2-yl]quinoline-8-carbonitrile]",101
7,"C[C@@H]1CN(c2ccc(C#N)c3ncccc23)C[C@@H]2CCN(c3cc4c(cn3)CNCC4)CCN21 [Example 7, 5-[(4R,10aS)-4-methyl-8-(5,6,7,8-tetrahydro-2,7-naphthyridin-3-yl)-1,3,4,6,7,9,10,10a-octahydropyrazino[1,2-d][1,4]diazepin-2-yl]quinoline-8-carbonitrile]",81.9
8,"C[C@@H]1CN(c2ccc(C#N)c3ncccc23)C[C@@H]2CCN(Cc3cc4c(cn3)CNCC4)CCN21 [Example 8, 5-[(4R,10aS)-4-methyl-8-(5,6,7,8-tetrahydro-2,7-naphthyridin-3-ylmethyl)-1,3,4,6,7,9,10,10a-octahydropyrazino[1,2-d][1,4]diazepin-2-yl]quinoline-8-carbonitrile]",62.2
9,"C[C@@H]1CN(c2ccc(C#N)c3ncccc23)C[C@@H]2CCN(Cc3cc4c(cn3)CCNC4)CCN21 [Example 9, 5-[(4R,10aS)-4-methyl-8-(5,6,7,8-tetrahydro-2,6-naphthyridin-3-ylmethyl)-1,3,4,6,7,9,10,10a-octahydropyrazino[1,2-d][1,4]diazepin-2-yl]quinoline-8-carbonitrile]",35
10,"C[C@@H]1CN(c2ccc(C#N)c3ncccc23)C[C@@H]2CCN(Cc3cnc4c(c3)CNCC4)CCN21 [Example 10, 5-[(4R,10aS)-4-methyl-8-(5,6,7,8-tetrahydro-1,6-naphthyridin-3-ylmethyl)-1,3,4,6,7,9,10,10a-octahydropyrazino[1,2-d][1,4]diazepin-2-yl]quinoline-8-carbonitrile]",< 31.8
11,"C[C@@H]1CN(c2ccc(C#N)c3ncccc23)C[C@@H]2CCN(Cc3ccc4c(c3)CCNC4)CCN21 [Example 11, 5-[(4R,10aS)-4-methyl-8-(1,2,3,4-tetrahydroisoquinolin-6-ylmethyl)-1,3,4,6,7,9,10,10a-octahydropyrazino[1,2-d][1,4]diazepin-2-yl]quinoline-8-carbonitrile]",48.7
12,"C[C@@H]1CN(c2ccc(C#N)c3ncccc23)C[C@@H]2CCN(Cc3ccc4c(c3)CNCC4)CCN21 [Example 12, 5-[(4R,10aS)-4-methyl-8-(1,2,3,4-tetrahydroisoquinolin-7-ylmethyl)-1,3,4,6,7,9,10,10a-octahydropyrazino[1,2-d][1,4]diazepin-2-yl]quinoline-8-carbonitrile]",43.8
13,"C[C@@H]1CN(c2ccc(C#N)c3ncccc23)C[C@@H]2CCN(Cc3ncc(N4CCNCC4)cn3)CCN21 [Example 13, 5-[(4R,10aS)-4-methyl-8-[(5-piperazin-1-ylpyrimidin-2-yl)methyl]-1,3,4,6,7,9,10,10a-octahydropyrazino[1,2-d][1,4]diazepin-2-yl]quinoline-8-carbonitrile]",96.4
14,"C[C@@H]1CN(c2ccc(C#N)c3ncccc23)C[C@@H]2CCN(Cc3cnc(N4CCNCC4)nc3)CCN21 [Example 14, 5-[(4R,10aS)-4-methyl-8-[(2-piperazin-1-ylpyrimidin-5-yl)methyl]-1,3,4,6,7,9,10,10a-octahydropyrazino[1,2-d][1,4]diazepin-2-yl]quinoline-8-carbonitrile]",70.5
15,"C[C@@H]1CN(c2ccc(C#N)c3ncccc23)C[C@@H]2CCN(Cc3cnc(N4CCNCC4)cn3)CCN21 [Example 15, 5-[(4R,10aS)-4-methyl-8-[(5-piperazin-1-ylpyrazin-2-yl)methyl]-1,3,4,6,7,9,10,10a-octahydropyrazino[1,2-d][1,4]diazepin-2-yl]quinoline-8-carbonitrile]",36.1
16,"C[C@@H]1CN(c2ccc(C#N)c3ncccc23)C[C@@H]2CCN(Cc3cncc(N4CCNCC4)c3)CCN21 [Example 16, 5-[(4R,10aS)-4-methyl-8-[(5-piperazin-1-yl-3-pyridyl)methyl]-1,3,4,6,7,9,10,10a-octahydropyrazino[1,2-d][1,4]diazepin-2-yl]quinoline-8-carbonitrile]",35.4
17,"C[C@@H]1CN(c2ccc(C#N)c3ncccc23)C[C@@H]2CCN(Cc3ccc(N4CCNCC4)nc3)CCN21 [Example 17, 5-[(4R,10aS)-4-methyl-8-[(6-piperazin-1-yl-3-pyridyl)methyl]-1,3,4,6,7,9,10,10a-octahydropyrazino[1,2-d][1,4]diazepin-2-yl]quinoline-8-carbonitrile]",< 31.8
18,"C[C@@H]1CN(c2ccc(C#N)c3ncccc23)C[C@@H]2CCN(Cc3cccc(N4CCNCC4)n3)CCN21 [Example 18, 5-[(4R,10aS)-4-methyl-8-[(6-piperazin-1-yl-2-pyridyl)methyl]-1,3,4,6,7,9,10,10a-octahydropyrazino[1,2-d][1,4]diazepin-2-yl]quinoline-8-carbonitrile]",< 31.8
19,"C[C@@H]1CN(c2ccc(C#N)c3ncccc23)C[C@@H]2CCN(Cc3ccc(N4CCNCC4)cn3)CCN21 [Example 19, 5-[(4R,10aS)-4-methyl-8-[(5-piperazin-1-yl-2-pyridyl)methyl]-1,3,4,6,7,9,10,10a-octahydropyrazino[1,2-d][1,4]diazepin-2-yl]quinoline-8-carbonitrile]",45.8
